Patent US4568690A, “1-Methyl-5-p-methylbenzoylpyrrole-2-acetamidoacetanilides with antiinflammatory, analgesic, antipyretic and anti-platelet aggregant activity” (priority 1983, dated 1986)

How the values were obtained:
[1] = system: platelet aggregation (ADP-induced); assay: in vitro anti-platelet aggregant activity (Born's method, ADP); format: cell-based, rat; conditions: Rattus norvegicus, Platelet, read-out: Inhibition % (platelet aggregation)
Method: This activity was studied in vitro following Born's method (G. W. R. Born, Nature, 194, 937 (1962)) and inducing platelet aggregation with ADP. […] For the aggregation test, 0.2 ml of platelet rich plasma was mixed with a NaCl solution (0.9%) to which the test substance was added up to a final volume of 0.6 ml. Incubation was fixed at 3 minutes at 27° C. After aggregation was induced with ADP, the course of the aggregation was monitored continuously with an Elvi 840 Aggregometer (Elvi Logos--Milan). The antiaggregant effects were determined by the difference in the light transmission of the sample with respect to that of the ADP control. The test compound was compared with aspirin, which has known antiplatelet aggregant activity (H. J. Weiss et al., J. Clin. Inv., 47, 2169 (1968); Platelet Aggregation and Drugs, edited by L. Caprino and E. C. Rossi, page 235, Academic Press (London), 1974).
Table VI reports the inhibition of platelet aggregation with various doses of the compounds tested at a constant ADP concentration.

carragenin-induced edema = carragenin-induced edema test (antinflammatory activity); format: in vivo, rats
Method: (§1) Preparations of the compound were administered orally and/or parenterally in a suspension in 0.59% carboxymethylcellulose in pH neutral physiological saline.
This effect was evaluated with an experimental model reproducing actue inflammation in rats: the carragenin-induced edema test was used, according to the method of C. A. Winter (G. Pharmac. Exp. Ther., 141, 369 (1963)). Table III reports the compounds tested, their concentrations, administration routes and relative percent edema inhibition.

[2] = system: p-phenylquinone-induced writhing; assay: p-phenylquinone-induced writhing test (analgesic activity); format: in vivo; conditions: an hour after administration
Method: as §1
The determination was made an hour after administration of the product. The inhibitory effect on abdominal contractions induced by phenyl-p-quinone was calculated as follows: [formula]
Table IV reports the doses, the administration routes and their effectiveness expressed as % protection.

[3] = system: hyperthermia induced by dry purified beer yeast; assay: antipyretic activity, beer yeast-induced hyperthermia; format: in vivo, Wistar strain male albino rats
Method: as §1
This effect was evaluated by inducing hyperthermia in Wistar strain male albino rats with an average weight of 250±10 g, injecting them intraperitoneally with a 10% suspension of dry purified beer yeast (Carlo Erba) in a volume of 10 ml/Kg of body weight, according to the method of S. Wong et al. (J. Pharmac. Exp. Ther., 185 (1), 127 (1973)).

gastric mucosa = assay: gastric tolerance (ulcerogenic activity); conditions: orally, four consecutive days; for Mean number severity: severity scale 0-5
Method: This was studied by testing ulcerogenic activity in male Wistar rats weighing an average of 180 g, using groups of 10 animals each. Three doses of each substance were used, and one group of animals was treated with vehicle only, in a volume of 10 ml/g body weight. Each dose was administered orally for four consecutive days, and the rats were killed on the fifth day and autopsied. The ulcerogenic effect was evaluated on the following scale:
(1) each hemorrhage point >1 mm was evaluated as 1 lesion
(2) the hemorrhage points <1 were counted as follows:
(b) from 1 to 19 2 lesions
(c) from 1 to 29 3 lesions
(2) gastric mucosa irritation
(3) hemorrhage points <1 mm
(4) hemorrhage points from 1 to 3 mm
(5) hemorrhage points >3 mm
This scale was used to calculate the following index of gastric damage: [formula]

CC(=O)Oc1ccccc1C(=O)O [Aspirin, reference compound]
inhibition at 1 µg/mL [1]: 15% | inhibition at 5 µg/mL [1]: 60% | inhibition at 10 µg/mL [1]: 100%

Cc1ccc(C(=O)c2ccc(CC(=O)O)n2C)cc1 [Tolmetin Na.2H2 O, reference compound]
Oedema inhibition % (carragenin-induced edema; i.p., 10 mg/kg, 3 h): 33.7% | Oedema inhibition % (carragenin-induced edema; i.p., 10 mg/kg, 6 h): 30.1% | Oedema inhibition % (carragenin-induced edema; i.p., 10 mg/kg, 24 h): 0.0% | Oedema inhibition % (carragenin-induced edema; i.p., 50 mg/kg, 3 h): 47.1% | Oedema inhibition % (carragenin-induced edema; i.p., 50 mg/kg, 6 h): 44.0% | Oedema inhibition % (carragenin-induced edema; i.p., 50 mg/kg, 24 h): 0.0% | Oedema inhibition % (carragenin-induced edema; i.p., 100 mg/kg, 3 h): 58.3% | Oedema inhibition % (carragenin-induced edema; i.p., 100 mg/kg, 6 h): 52.2% | Oedema inhibition % (carragenin-induced edema; i.p., 100 mg/kg, 24 h): 5.3% | Oedema inhibition % (carragenin-induced edema; os, 10 mg/kg, 3 h): 32.0% | Oedema inhibition % (carragenin-induced edema; os, 10 mg/kg, 6 h): 20.0% | Oedema inhibition % (carragenin-induced edema; os, 10 mg/kg, 24 h): 0.0% | Oedema inhibition % (carragenin-induced edema; os, 50 mg/kg, 3 h): 46.8% | Oedema inhibition % (carragenin-induced edema; os, 50 mg/kg, 6 h): 45.0% | Oedema inhibition % (carragenin-induced edema; os, 50 mg/kg, 24 h): 0.0% | Oedema inhibition % (carragenin-induced edema; os, 100 mg/kg, 3 h): 56.1% | Oedema inhibition % (carragenin-induced edema; os, 100 mg/kg, 6 h): 54.3% | Oedema inhibition % (carragenin-induced edema; os, 100 mg/kg, 24 h): 8.9% | Protection % ([2]; i.p., 5 mg/kg): 16.5% | Protection % ([2]; i.p., 10 mg/kg): 46.2% | Protection % ([2]; i.p., 20 mg/kg): 69.3% | Protection % ([2]; os, 5 mg/kg): 15.0% | Protection % ([2]; os, 10 mg/kg): 40.6% | Protection % ([2]; os, 20 mg/kg): 62.0% | Temperature decrease % ([3]; i.p., 50 mg/kg, 1 h): 16.0% | Temperature decrease % ([3]; i.p., 50 mg/kg, 2 h): 19.0% | Temperature decrease % ([3]; i.p., 50 mg/kg, 3 h): 31.0% | Temperature decrease % ([3]; i.p., 75 mg/kg, 1 h): 20.0% | Temperature decrease % ([3]; i.p., 75 mg/kg, 2 h): 29.2% | Temperature decrease % ([3]; i.p., 75 mg/kg, 3 h): 34.7% | Temperature decrease % ([3]; i.p., 100 mg/kg, 1 h): 28.0% | Temperature decrease % ([3]; i.p., 100 mg/kg, 2 h): 39.1% | Temperature decrease % ([3]; i.p., 100 mg/kg, 3 h): 31.3% | Temperature decrease % ([3]; os, 50 mg/kg, 1 h): 18.0% | Temperature decrease % ([3]; os, 50 mg/kg, 6 h): 20.0% | Temperature decrease % ([3]; os, 50 mg/kg, 24 h): 29.5% | Temperature decrease % ([3]; os, 75 mg/kg, 1 h): 20.0% | Temperature decrease % ([3]; os, 75 mg/kg, 6 h): 26.0% | Temperature decrease % ([3]; os, 75 mg/kg, 24 h): 27.0% | Temperature decrease % ([3]; os, 100 mg/kg, 1 h): 32.0% | Temperature decrease % ([3]; os, 100 mg/kg, 6 h): 30.9% | Temperature decrease % ([3]; os, 100 mg/kg, 24 h): 47.2% | Mean number lesions (gastric mucosa; 50 mg/kg): 2 | Mean number severity (gastric mucosa; 50 mg/kg): 2 | Mean number lesions (gastric mucosa; 100 mg/kg): 2.5 | Mean number severity (gastric mucosa; 100 mg/kg): 3.5 | Mean number lesions (gastric mucosa; 200 mg/kg): 3 | Mean number severity (gastric mucosa; 200 mg/kg): 4
